Experimental data published in PubChem BioAssay (NCI).
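Where inhibition never reached the appropriate level, the endpoint shown equals the highest concentration tested. Otherwise, values were interpolated linearly from a five-concentration, 48-hour dose response in 96-well plates. GI50 marks 50% less growth. TGI marks complete inhibition of growth.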

How the values were obtained:
Assay in all cases: inhibition of tumour cell growth, NCI panel, 48 h
[1] = system: OVCAR-4 ovarian
[2] = system: HT29 colon
[3] = system: BT-549 breast
[4] = system: HOP-62 NSCLC
[5] = system: UO-31 renal
[6] = system: K-562 leukemia
[7] = system: RPMI-8226 leukemia
[8] = system: U251 CNS
[9] = system: MALME-3M melanoma
[10] = system: KM12 colon
[11] = system: MCF7 breast
[12] = system: A549 NSCLC
[13] = system: SN12C renal
[14] = system: HOP-92 NSCLC
[15] = system: SNB-19 CNS
[16] = system: RXF 393 renal
[17] = system: HCC-2998 colon
[18] = system: EKVX NSCLC
[19] = system: SW-620 colon
[20] = system: ACHN renal
[21] = system: NCI/ADR-RES ovarian
[22] = system: SF-295 CNS
[23] = system: NCI-H460 lung
[24] = system: SK-MEL-2 melanoma
[25] = system: MDA-MB-435
[26] = system: UACC-257 melanoma
[27] = system: NCI-H522 lung
[28] = system: MOLT-4 leukemia
[29] = system: OVCAR-8 ovarian
[30] = system: MDA-MB-231 breast
[31] = system: SK-MEL-28 melanoma
[32] = system: PC-3 prostate
[33] = system: T-47D breast
[34] = system: NCI-H226 lung
[35] = system: LOX IMVI melanoma
[36] = system: HCT-116 colon
[37] = system: HCT-15 colon
[38] = system: COLO 205 colon
[39] = system: SF-539 CNS
[40] = system: HL-60(TB) leukemia
[41] = system: TK-10 renal
[42] = system: UACC-62 melanoma
[43] = system: SF-268 CNS
[44] = system: 786-0 renal
[45] = system: SK-OV-3 ovarian
[46] = system: SK-MEL-5 melanoma
[47] = system: SNB-75 CNS
[48] = system: CAKI-1 renal
[49] = system: OVCAR-3 ovarian
[50] = system: IGROV1 ovarian
[51] = system: NCI-H23 lung
[52] = system: CCRF-CEM leukemia
[53] = system: HS 578T breast
[54] = system: DU-145 prostate
[55] = system: SR leukemia
[56] = system: M14 melanoma
[57] = system: OVCAR-5 ovarian
[58] = system: A498 renal

Compound: CCC(=O)O[C@H]1CC[C@H]2[C@@H]3CC[C@H]4CC(=O)[C@H](C)C[C@]4(C)[C@H]3CC[C@]12C
- GI50 [1]: > 79.1 µM
- TGI [1]: > 100 µM
- GI50 [2]: 19.2 µM
- TGI [2]: > 100 µM
- GI50 [3]: 37 µM
- TGI [3]: > 100 µM
- GI50 [4]: 37.7 µM
- TGI [4]: > 100 µM
- GI50 [5]: 24.5 µM
- TGI [5]: > 100 µM
- GI50 [6]: 5.51 µM
- TGI [6]: > 59.5 µM
- GI50 [7]: 2.52 µM
- TGI [7]: 13 µM
- GI50 [8]: 34 µM
- TGI [8]: > 100 µM
- GI50 [9]: 45.7 µM
- TGI [9]: > 100 µM
- GI50 [10]: 34.6 µM
- TGI [10]: > 100 µM
- GI50 [11]: 23.9 µM
- TGI [11]: > 66.1 µM
- GI50 [12]: 19.5 µM
- TGI [12]: > 57.5 µM
- GI50 [13]: > 85.2 µM
- TGI [13]: > 100 µM
- TGI [14]: 63 µM
- GI50 [15]: > 100 µM
- TGI [15]: > 100 µM
- GI50 [16]: 30.5 µM
- TGI [16]: > 100 µM
- GI50 [17]: 49.7 µM
- TGI [17]: > 100 µM
- GI50 [18]: 22.1 µM
- TGI [18]: > 100 µM
- GI50 [19]: 31.9 µM
- TGI [19]: > 100 µM
- GI50 [20]: 38 µM
- TGI [20]: > 100 µM
- GI50 [21]: 38.3 µM
- TGI [21]: > 100 µM
- GI50 [22]: 20.9 µM
- TGI [22]: > 78 µM
- GI50 [23]: 13 µM
- TGI [23]: 97.4 µM
- GI50 [24]: 32 µM
- TGI [24]: > 100 µM
- GI50 [25]: 48.7 µM
- TGI [25]: > 100 µM
- GI50 [26]: 20.8 µM
- TGI [26]: 92.7 µM
- GI50 [27]: 38.4 µM
- TGI [27]: > 100 µM
- GI50 [28]: 9.11 µM
- TGI [28]: > 85.6 µM
- GI50 [29]: 43.1 µM
- TGI [29]: > 100 µM
- GI50 [30]: > 90.8 µM
- TGI [30]: > 100 µM
- GI50 [31]: > 88.7 µM
- TGI [31]: > 100 µM
- GI50 [32]: 10.5 µM
- TGI [32]: > 100 µM
- GI50 [33]: 26 µM
- TGI [33]: > 100 µM
- GI50 [34]: > 96.2 µM
- TGI [34]: > 100 µM
- GI50 [35]: 25.2 µM
- TGI [35]: > 100 µM
- GI50 [36]: 4.49 µM
- TGI [36]: > 42.6 µM
- GI50 [37]: 37.7 µM
- TGI [37]: > 100 µM
- GI50 [38]: 28.3 µM
- TGI [38]: > 100 µM
- GI50 [39]: > 83.5 µM
- TGI [39]: > 100 µM
- GI50 [40]: 5.57 µM
- TGI [40]: 24.3 µM
- GI50 [41]: 43.7 µM
- TGI [41]: > 100 µM
- GI50 [42]: 13.9 µM
- TGI [42]: > 100 µM
- GI50 [43]: > 75.7 µM
- TGI [43]: > 100 µM
- GI50 [44]: 43.3 µM
- TGI [44]: > 100 µM
- GI50 [45]: > 81.7 µM
- TGI [45]: > 100 µM
- GI50 [46]: 5.89 µM
- TGI [46]: > 60.9 µM
- GI50 [47]: > 100 µM
- TGI [47]: > 100 µM
- GI50 [48]: > 41.7 µM
- TGI [48]: > 100 µM
- GI50 [49]: 31.2 µM
- TGI [49]: > 84.1 µM
- GI50 [50]: > 60.5 µM
- TGI [50]: > 100 µM
- GI50 [51]: 43.6 µM
- TGI [51]: > 100 µM
- GI50 [52]: 18.8 µM
- TGI [52]: > 100 µM
- GI50 [53]: 44 µM
- TGI [53]: > 100 µM
- GI50 [54]: > 79.7 µM
- TGI [54]: > 100 µM
- GI50 [55]: 3.21 µM
- TGI [55]: 21.8 µM
- GI50 [56]: 48.1 µM
- TGI [56]: > 100 µM
- GI50 [57]: 74.8 µM
- TGI [57]: > 100 µM
- GI50 [58]: 28 µM
- TGI [58]: > 100 µM
